Assay results reported in PubChem BioAssay AID1918998 (Molecular Pharmacology Branch, DTP, NCI, 2023).

Tested on: 521955-158-R2-J5-PDC complex spheroid growth
Experiment: Anticancer human tumor 521955-158-R2-J5-PDC patient-derived pancreatic carcinoma cell line growth inhibition [AhR]
Settings: for IC50: curve of first compound; for viability, T/C: stronger effect = lower value; active = viability on the fitted dose curve at most 10% of control; inactive = the rest
From the text: Multicellular complex tumor spheroid response to aryl hydrocarbon receptor antagonists in combination with a variety of drugs and investigational agents in selected tumor cell lines
The current study was undertaken to assess response to aryl hydrocarbon receptor antagonists in combination with standard-of-care drugs and investigational agents in solid tumor complex spheroid models. Complex spheroids include a stromal component modeled by human endothelial cells (HUVEC) and fibroblasts modeled by human mesenchymal stem cells (MSCs). The concentration ranges selected for each drug and investigational agent were based upon clinically achievable concentrations if the clinical Cmax of the agent was known.
Compounds. The drugs and investigational agents: BAY 2416964 (NSC825713), GNF351 (NSC835774), CH-223191 (NSC835775), CPI-455 (NSC825282), aza-TdCyd (NSC777586), decitabine (NSC127716), belinostat (NSC758774), entinostat (NSC756642), pevonedistat (NSC761192), tazemetostat (NSC777109), talazoparib (NSC765396), olaparib (NSC753686), selinexor (NSC780203), nedisertib (M3814, NSC802822), bortezomib (NSC756655), venetoclax (NSC766270), doxorubicin (NSC123127), elimusertib (BAY189344, NSC800525), ceralasertib (AZD6738, NSC777638), TAK-243 (NSC785004), alisertib (NSC759677), etoposide (NSC141540), topotecan (NSC609699), eribulin (NSC707389), gemcitabine (NSC613327), carboplatin (NSC241240), cisplatin (NSC119875), and SN-38 (NSC673596) were obtained from the National Cancer Institute (NCI) Developmental Therapeutics Program Chemical Repository (32). The FDA-approved anticancer drug set is available from the Developmental Therapeutics Program at https://dtp.cancer.gov/organization/dscb/obtaining/available plates.htm. […] The stock solutions were prepared in dimethyl sulfoxide (DMSO, Sigma-Aldrich, St. Louis, MO, cat. D2650), except for the platinum compounds which were prepared in saline (Quality Biological, Gaithersburg, MD, cat. 114-055-101), at 800-fold the tested concentration and stored at -70 degrees C prior to their use. All drugs and investigational agents were tested over a range starting from a high concentration at or near the clinical Cmax and decreasing in half-log increments. If the clinical Cmax for an agent had not been determined, the highest concentration tested was 10 microM (Table 1).
Cell Culture. All cells were maintained in an incubator at 37 degrees C and 5% CO2 with 95% humidity. The PDC lines were cultured according to standard operating procedures established by the NCI PDMR (https://pdmr.cancer.gov). Briefly, all PDCs were thawed and cultured in Matrigel-coated flasks prepared with a working solution of 1X Ham's F-12 nutrient mix, without supplementation (Invitrogen, Waltham, MA, cat. 11765054), 100 U/mL penicillin-streptomycin (Invitrogen, cat. 15140122), and 2.5% Matrigel (Corning Inc., Corning, NY, cat. 354248) for the first three passages. All PDCs were cultured in complete DMEM/F-12 media containing advanced DMEM/F-12 (Invitrogen, cat. 12634028), 4.9% defined fetal bovine serum, heat inactivated (HyClone Laboratories Inc., Logan, UT, cat. SH30070.03HI), 389 ng/mL hydrocortisone (Sigma-Aldrich, cat. H4001), 9.7 ng/mL human EGF recombinant protein (Invitrogen, cat. PHG0313), 23.4 microg/mL adenine (Sigma-Aldrich, cat. A2786), 97.3 U/mL penicillin-streptomycin (Invitrogen, cat. 15140122), 1.9 mM L-glutamine (Invitrogen, cat. 25030081), and 9.7 microM Y-27632 dihydrochloride (Tocris Bioscience, Bristol, United Kingdom, cat. 1254). The PDCs were cultured in complete DMEM/F12 media without 10 microM Y-27632 dihydrochloride for at least two passages prior to the screen. The established cell lines NCI-H1341 and […] were cultured in DMEM/F-12, HEPES (Invitrogen, cat. 11330032), 5% defined fetal bovine serum (HyClone Laboratories Inc., cat. SH30070.03), ITS premix universal culture supplement [insulin (5 microg/mL), transferrin (5 microg/mL), and selenious acid (5 ng/mL)] […]

[1] = second compound 0.1 µM, first compound 0.0316 µM
[2] = second compound 0.1 µM, first compound 0.1 µM
[3] = second compound 0.1 µM, first compound 0.316 µM
[4] = second compound 0.1 µM, first compound 1 µM
[5] = second compound 0.1 µM, first compound 3.16 µM
[6] = second compound 0.1 µM, first compound 10 µM
[7] = second compound 0.316 µM, first compound 0.0316 µM
[8] = second compound 0.316 µM, first compound 0.1 µM
[9] = second compound 0.316 µM, first compound 0.316 µM
[10] = second compound 0.316 µM, first compound 1 µM
[11] = second compound 0.316 µM, first compound 3.16 µM
[12] = second compound 0.316 µM, first compound 10 µM
[13] = second compound 1 µM, first compound 0.0316 µM
[14] = second compound 1 µM, first compound 0.1 µM
[15] = second compound 1 µM, first compound 0.316 µM
[16] = second compound 1 µM, first compound 1 µM
[17] = second compound 1 µM, first compound 3.16 µM
[18] = second compound 1 µM, first compound 10 µM
[19] = second compound 3.16 µM, first compound 0.0316 µM
[20] = second compound 3.16 µM, first compound 0.1 µM
[21] = second compound 3.16 µM, first compound 0.316 µM
[22] = second compound 3.16 µM, first compound 1 µM
[23] = second compound 3.16 µM, first compound 3.16 µM
[24] = second compound 3.16 µM, first compound 10 µM
[25] = second compound 10 µM, first compound 0.0316 µM
[26] = second compound 10 µM, first compound 0.1 µM
[27] = second compound 10 µM, first compound 0.316 µM
[28] = second compound 10 µM, first compound 1 µM
[29] = second compound 10 µM, first compound 3.16 µM
[30] = second compound 10 µM, first compound 10 µM
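For viability, T/C in this document: spheroids mix tumor cells with HUVEC endothelium and human MSC stroma; luminescence taken as viability surrogate after a week of drug exposure.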

CC1(C)CCC(CN2CCN(c3ccc(C(=O)NS(=O)(=O)c4ccc(NCC5CCOCC5)c([N+](=O)[O-])c4)c(Oc4cnc5[nH]ccc5c4)c3)CC2)=C(c2ccc(Cl)cc2)C1 + CC(CO)NC(=O)c1cc(-c2ccc(Cl)cc2)nn(-c2cnn(C)c2)c1=O
inactive: viability, T/C [1] 103% | viability, T/C [2] 125% | viability, T/C [3] 92.1% | viability, T/C [4] 92.7% | viability, T/C [5] 98% | viability, T/C [6] 67.3% | viability, T/C [7] 115% | viability, T/C [8] 111% | viability, T/C [9] 124% | viability, T/C [10] 100% | viability, T/C [11] 111% | viability, T/C [12] 67.7% | viability, T/C [13] 93.1% | viability, T/C [14] 105% | viability, T/C [15] 122% | viability, T/C [16] 138% | viability, T/C [17] 124% | viability, T/C [18] 56% | viability, T/C [19] 123% | viability, T/C [20] 99.1% | viability, T/C [21] 113% | viability, T/C [22] 113% | viability, T/C [23] 108% | viability, T/C [24] 61.9% | viability, T/C [25] 90.2% | viability, T/C [26] 120% | viability, T/C [27] 109% | viability, T/C [28] 92.8% | viability, T/C [29] 95.1% | viability, T/C [30] 63.7%
> 10000 nM: IC50 (second compound 0.1 µM) | IC50 (second compound 0.316 µM) | IC50 (second compound 1 µM) | IC50 (second compound 3.16 µM) | IC50 (second compound 10 µM)

COc1cc(Nc2ncc3c(n2)-c2ccc(Cl)cc2C(c2c(F)cccc2OC)=NC3)ccc1C(=O)O + CC(CO)NC(=O)c1cc(-c2ccc(Cl)cc2)nn(-c2cnn(C)c2)c1=O
> 10000 nM: IC50 (second compound 0.1 µM) | IC50 (second compound 0.316 µM) | IC50 (second compound 1 µM)
1180 nM: IC50 (second compound 10 µM)
2660 nM: IC50 (second compound 3.16 µM)
inactive: viability, T/C [1] 99.5% | viability, T/C [2] 78.4% | viability, T/C [3] 68.2% | viability, T/C [4] 61.9% | viability, T/C [5] 65.3% | viability, T/C [6] 50% | viability, T/C [7] 91.3% | viability, T/C [8] 74.6% | viability, T/C [9] 71.9% | viability, T/C [10] 76.5% | viability, T/C [11] 55% | viability, T/C [12] 50.6% | viability, T/C [13] 59.5% | viability, T/C [14] 64.9% | viability, T/C [15] 69.2% | viability, T/C [16] 63.6% | viability, T/C [17] 48.6% | viability, T/C [18] 72.8% | viability, T/C [19] 84.3% | viability, T/C [20] 69.5% | viability, T/C [21] 48% | viability, T/C [22] 65.4% | viability, T/C [23] 47.7% | viability, T/C [24] 44.9% | viability, T/C [25] 62.2% | viability, T/C [26] 49.3% | viability, T/C [27] 62.4% | viability, T/C [28] 51.8% | viability, T/C [29] 37.6% | viability, T/C [30] 35%

Cn1ncnc1C1c2n[nH]c(=O)c3cc(F)cc(c23)NC1c1ccc(F)cc1 (stereo not given) + CC(CO)NC(=O)c1cc(-c2ccc(Cl)cc2)nn(-c2cnn(C)c2)c1=O
> 100 nM: IC50 (second compound 0.1 µM) | IC50 (second compound 0.316 µM) | IC50 (second compound 1 µM) | IC50 (second compound 3.16 µM) | IC50 (second compound 10 µM)
inactive: viability, T/C (second compound 0.1 µM, first compound 0.000316 µM) 99.2% | viability, T/C (second compound 0.1 µM, first compound 0.001 µM) 112% | viability, T/C (second compound 0.1 µM, first compound 0.00316 µM) 116% | viability, T/C (second compound 0.1 µM, first compound 0.01 µM) 108% | viability, T/C [1] 105% | viability, T/C [2] 83% | viability, T/C (second compound 0.316 µM, first compound 0.000316 µM) 117% | viability, T/C (second compound 0.316 µM, first compound 0.001 µM) 107% | viability, T/C (second compound 0.316 µM, first compound 0.00316 µM) 120% | viability, T/C (second compound 0.316 µM, first compound 0.01 µM) 119% | viability, T/C [7] 74.1% | viability, T/C [8] 103% | viability, T/C (second compound 1 µM, first compound 0.000316 µM) 103% | viability, T/C (second compound 1 µM, first compound 0.001 µM) 134% | viability, T/C (second compound 1 µM, first compound 0.00316 µM) 112% | viability, T/C (second compound 1 µM, first compound 0.01 µM) 114% | viability, T/C [13] 106% | viability, T/C [14] 100% | viability, T/C (second compound 3.16 µM, first compound 0.000316 µM) 118% | viability, T/C (second compound 3.16 µM, first compound 0.001 µM) 121% | viability, T/C (second compound 3.16 µM, first compound 0.00316 µM) 86.1% | viability, T/C (second compound 3.16 µM, first compound 0.01 µM) 89.3% | viability, T/C [19] 86.1% | viability, T/C [20] 78.5% | viability, T/C (second compound 10 µM, first compound 0.000316 µM) 104% | viability, T/C (second compound 10 µM, first compound 0.001 µM) 100% | viability, T/C (second compound 10 µM, first compound 0.00316 µM) 99.7% | viability, T/C (second compound 10 µM, first compound 0.01 µM) 82.6% | viability, T/C [25] 60.1% | viability, T/C [26] 77.8%

NS(=O)(=O)OCC1CC(n2ccc3c(NC4CCc5ccccc54)ncnc32)CC1O (stereo not given) + CC(CO)NC(=O)c1cc(-c2ccc(Cl)cc2)nn(-c2cnn(C)c2)c1=O
371 nM: IC50 (second compound 3.16 µM)
492 nM: IC50 (second compound 1 µM)
484 nM: IC50 (second compound 0.316 µM)
232 nM: IC50 (second compound 10 µM)
inactive: viability, T/C [1] 87.2% | viability, T/C [2] 92.5% | viability, T/C [3] 61.7% | viability, T/C [4] 29.5% | viability, T/C [5] 20.6% | viability, T/C [6] 18.7% | viability, T/C [7] 93.1% | viability, T/C [8] 90.2% | viability, T/C [9] 61.1% | viability, T/C [10] 30.5% | viability, T/C [11] 19.5% | viability, T/C [12] 18.3% | viability, T/C [13] 90.5% | viability, T/C [14] 97.7% | viability, T/C [15] 62% | viability, T/C [16] 31% | viability, T/C [17] 21.6% | viability, T/C [18] 20.7% | viability, T/C [19] 85.5% | viability, T/C [20] 83.1% | viability, T/C [21] 49.8% | viability, T/C [22] 31.3% | viability, T/C [23] 20.8% | viability, T/C [24] 14.7% | viability, T/C [25] 68.8% | viability, T/C [26] 66% | viability, T/C [27] 41.6% | viability, T/C [28] 31.2% | viability, T/C [29] 19.2% | viability, T/C [30] 15.2%
486 nM: IC50 (second compound 0.1 µM)
